Laboratory results from US8518978B2, “Pharmaceutical composition for prevention and treatment of restenosis comprising isoxazole derivatives” (SK Biopharmaceuticals Co., Ltd., priority 2007, dated 2013).

Assays:
[1] = system: Wnt/β-catenin signal transduction (β-catenin activity) in HEK293 cell line; test: Cell based Wnt agonist screening system (Tcf/Lef firefly luciferase reporter) in HEK293 cell line; parameters: species or system human
From the text: (§1) Two kinds of human cancer cell lines HEK293 and SW480 were used to determine the ex vivo activity of the compounds according to one exemplary embodiment of the present invention.
(§2) In order to determine the activity of the wnt/β-catenin signal transduction in each cancer cell line, the present inventors introduced a gene as shown in FIG. 1 into cells, the gene having binding sites (5× TCFs) of Tcf/Lef transcription regulation protein to which β-catenin binds and having a firefly fluorescent protein (firefly luciferase) as a marker that can determine the activity of the Tcf/Lef transcription regulation protein. Then, the present inventors constructed a cell based Wnt agonist screening system by treating the gene-introduced cells with G418 to obtain a single clone of a cell line whose Tcf/Lef transcription regulation protein is continuously expressed due to the introduction of the gene. […]
(§3) When the prepared cell line was treated with lithium chloride (LiCl) that is a positive control in the cell based Wnt agonist screening system as the control for determining the Wnt agonist activity of the isoxazole derivative according to one exemplary embodiment of the present invention, an expression level of the fluorescent protein was measured, and plotted in a graph as shown in FIG. 3. […]

[2] = system: Wnt/β-catenin signal transduction (β-catenin activity) in SW480 cell line; test: Cell based Wnt agonist screening system (Tcf/Lef firefly luciferase reporter) in SW480 cell line; parameters: species or system human; settings: Conc. 20000 μM, control that defines 100%
From the text: as §1, §2, §3

SMILES	Emax at 120 µM ([1]; Homo sapiens, Conc. 120 μM, 24-hour treatment, relative to LiCl 20 mM = 100%, read-out: Relative Max. Activity (%)) [%]	Relative Max. Activity (%) [2] [%]	Relative Max. Activity (%) ([1]; Conc. 20000 μM, control that defines 100%)
Nc1ccc(-c2cc(C(=O)NCCCn3ccnc3)no2)cc1 [Derivative 48, 5-(4-amino-phenyl)-isoxazole-3-carboxylic acid (3-imidazol-1-yl-propyl)-amide]	246		
[Cl-].[Li+] [LiCl, lithium chloride, reference compound]		100	100
